Test [1] is described as follows: inhibitors of intracellular T. cruzi replication, confirmation, NIH3T3 host cells, beta-gal luminescence (AID 2044).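 Note: intracellular parasites grown in NIH/3T3 mouse fibroblasts as host cells; luminescent beta-galactosidase reporter signal from transgenic T. cruzi replicating inside host cells; inhibitors lower the luminescence signal.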 In kind it is functional, cell-based.
Test [2] deals with T1, Replicative DNA helicase DnaB (Mycobacterium tuberculosis, UniProt P9WMR3).
T1 sequence (P9WMR3 whole entry): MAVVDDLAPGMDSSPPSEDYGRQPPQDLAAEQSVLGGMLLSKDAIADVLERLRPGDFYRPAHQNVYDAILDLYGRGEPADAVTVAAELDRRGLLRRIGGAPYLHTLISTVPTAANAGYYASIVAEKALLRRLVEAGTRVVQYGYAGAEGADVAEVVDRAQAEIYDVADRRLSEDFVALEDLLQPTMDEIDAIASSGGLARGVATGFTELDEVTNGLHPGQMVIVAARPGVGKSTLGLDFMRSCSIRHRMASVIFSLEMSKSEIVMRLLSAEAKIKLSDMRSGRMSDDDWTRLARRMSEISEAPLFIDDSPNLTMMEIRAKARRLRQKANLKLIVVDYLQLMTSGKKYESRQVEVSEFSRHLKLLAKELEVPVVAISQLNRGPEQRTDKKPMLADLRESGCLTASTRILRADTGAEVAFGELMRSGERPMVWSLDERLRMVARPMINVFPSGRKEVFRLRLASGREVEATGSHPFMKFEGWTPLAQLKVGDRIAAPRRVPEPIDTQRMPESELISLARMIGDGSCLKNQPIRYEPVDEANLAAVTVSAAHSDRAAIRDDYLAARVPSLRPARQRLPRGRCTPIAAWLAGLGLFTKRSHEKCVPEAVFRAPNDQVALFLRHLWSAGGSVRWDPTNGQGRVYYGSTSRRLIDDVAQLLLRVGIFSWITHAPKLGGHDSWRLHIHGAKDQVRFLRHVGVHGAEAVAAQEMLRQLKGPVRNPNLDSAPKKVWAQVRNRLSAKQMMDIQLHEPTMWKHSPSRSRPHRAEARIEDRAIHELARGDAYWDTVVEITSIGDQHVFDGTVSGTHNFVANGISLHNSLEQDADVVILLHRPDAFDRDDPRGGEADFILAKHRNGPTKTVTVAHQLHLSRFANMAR
Briefly: DnaB intein splicing inhibitors, dose response, biochemical, cell-free fluorescence (AID 449749). In kind it is functional.

In test [3] the target is Prothrombin (Bos taurus, UniProt P00735). Description: thrombin inhibition, dose response, biochemical, fluorescence polarization, uHTS hits (AID 602369). In kind it is functional. On the technique in general: Polarisation of emitted light reports the rotation of a fluorescent probe.
The target of test [4] is Small ubiquitin-related modifier 1 (Homo sapiens, UniProt P63165). Description: inhibitors of SUMO1 partner interactions, dose response, biochemical, FRET (AID 624383). In kind it is functional. Particulars: read-out: IC50_Mean.
In test [5] the target is T2, Sentrin-specific protease 6 (Homo sapiens, UniProt Q9GZR1).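 Note: Luminescence-based dose-response confirmatory assay of SENP6 inhibition, following up an ultra-high-throughput screen.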
T2 sequence (Q9GZR1 whole entry): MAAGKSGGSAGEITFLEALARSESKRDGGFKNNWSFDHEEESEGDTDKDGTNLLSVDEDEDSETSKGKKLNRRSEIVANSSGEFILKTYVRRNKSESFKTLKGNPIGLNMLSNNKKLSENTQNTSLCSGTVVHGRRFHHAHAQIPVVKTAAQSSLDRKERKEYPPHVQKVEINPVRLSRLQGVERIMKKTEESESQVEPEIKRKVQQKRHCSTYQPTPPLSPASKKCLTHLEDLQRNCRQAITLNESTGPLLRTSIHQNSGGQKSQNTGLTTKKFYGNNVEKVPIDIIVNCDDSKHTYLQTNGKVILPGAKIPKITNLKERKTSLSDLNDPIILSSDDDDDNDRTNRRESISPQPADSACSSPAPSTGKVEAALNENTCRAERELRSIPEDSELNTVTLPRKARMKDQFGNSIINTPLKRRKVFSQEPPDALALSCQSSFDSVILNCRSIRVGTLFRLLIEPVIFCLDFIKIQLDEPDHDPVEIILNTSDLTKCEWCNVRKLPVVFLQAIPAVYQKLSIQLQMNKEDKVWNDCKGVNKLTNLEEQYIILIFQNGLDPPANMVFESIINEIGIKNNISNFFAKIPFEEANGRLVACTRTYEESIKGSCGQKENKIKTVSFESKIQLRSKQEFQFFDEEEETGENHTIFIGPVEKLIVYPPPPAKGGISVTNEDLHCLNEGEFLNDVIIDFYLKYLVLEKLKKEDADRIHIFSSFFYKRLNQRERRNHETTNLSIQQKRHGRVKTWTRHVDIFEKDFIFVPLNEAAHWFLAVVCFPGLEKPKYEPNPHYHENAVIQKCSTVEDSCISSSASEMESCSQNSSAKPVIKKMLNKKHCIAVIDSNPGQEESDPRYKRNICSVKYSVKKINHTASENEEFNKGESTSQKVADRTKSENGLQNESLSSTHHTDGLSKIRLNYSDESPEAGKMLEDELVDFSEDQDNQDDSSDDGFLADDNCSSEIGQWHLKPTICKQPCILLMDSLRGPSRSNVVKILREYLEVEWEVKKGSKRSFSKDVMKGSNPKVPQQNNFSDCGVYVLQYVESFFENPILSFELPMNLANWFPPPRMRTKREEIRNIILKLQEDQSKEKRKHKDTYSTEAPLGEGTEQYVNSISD
In kind it is functional.

Test [6] concerns the target T3, Sentrin-specific protease 8 (Homo sapiens, UniProt Q96LD8).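 Note: luminescence read-out of SENP8 inhibition, dose-response confirmation following an ultra-high-throughput screen.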
T3 sequence (Q96LD8 whole entry): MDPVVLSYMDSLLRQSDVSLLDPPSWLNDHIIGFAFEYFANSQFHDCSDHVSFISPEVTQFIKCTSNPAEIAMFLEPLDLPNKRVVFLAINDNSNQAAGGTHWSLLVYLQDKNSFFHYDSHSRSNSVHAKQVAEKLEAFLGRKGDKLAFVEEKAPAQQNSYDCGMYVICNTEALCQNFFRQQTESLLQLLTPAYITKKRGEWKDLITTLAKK
In kind it is functional.

Test [7] is described as follows: Luminescence Cell-Based Dose Response HTS to Identify Inhibitors of 5'UTR Stem-Loop Driven Prion Protein mRNA Translation in H4 Neuroglioblastoma Cells. [Related pubchem assays: 1827 (Project Summary), 1813 (Primary HTS)]. In kind it is functional.
Test [8] addresses T4, Streptokinase A (Streptococcus pyogenes serotype M1, UniProt P10520).
T4 sequence (P10520 whole entry): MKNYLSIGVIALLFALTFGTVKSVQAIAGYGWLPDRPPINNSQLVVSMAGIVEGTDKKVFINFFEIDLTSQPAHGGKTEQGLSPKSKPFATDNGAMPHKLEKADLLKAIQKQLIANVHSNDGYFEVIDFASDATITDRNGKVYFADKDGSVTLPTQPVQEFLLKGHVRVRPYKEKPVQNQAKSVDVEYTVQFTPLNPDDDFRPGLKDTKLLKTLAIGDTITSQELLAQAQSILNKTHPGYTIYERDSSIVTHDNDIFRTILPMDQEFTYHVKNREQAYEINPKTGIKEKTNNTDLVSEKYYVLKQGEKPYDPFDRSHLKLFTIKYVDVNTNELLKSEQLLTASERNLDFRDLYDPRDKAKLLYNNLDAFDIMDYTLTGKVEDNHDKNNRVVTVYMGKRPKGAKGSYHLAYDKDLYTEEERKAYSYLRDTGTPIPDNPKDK
Description: S. pyogenes streptokinase expression inhibitors, potency, dose response, plasminogen activation absorbance, OD405 (AID 1914).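 Note: secreted streptokinase activity via plasminogen activation per viability signal from cell pellet.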 In kind it is functional, Streptococcus pyogenes M1 GAS.

The source made the active and inactive calls.

Sequence of Small ubiquitin-related modifier 1 (P63165 whole entry): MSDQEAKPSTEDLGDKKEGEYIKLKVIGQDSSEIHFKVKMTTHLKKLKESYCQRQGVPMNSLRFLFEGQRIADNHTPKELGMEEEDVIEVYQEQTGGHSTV

In general, EC50 refers to the concentration at which the effect is half-maximal. The term AC50 denotes the concentration giving half of the maximal activity seen. As to `COC(=O)c1cc(C)nc2c1C(=O)C(=O)C=C2N1CCOCC1`, in test [1], the EC50 is 2.34 µM (active). For the same compound, in test [2], the AC50 is 1.36 µM (active).
For the compound `NS(=O)(=O)c1cc(C(=O)NC2CCSc3ccccc32)ccc1Cl` (stereo not drawn), the IC50 in test [3] was 24.5 µM (active); in test [4] it was 2.29 µM (active).
With `CCOC(=O)C1=C(C)OC2(O)c3ccccc3C(=O)C12O` (stereo not drawn), the IC50 in test [5] was 2.7 µM (active); in test [6] it was 5.38 µM (active).
For `O=C1c2ccccc2C(=O)c2[nH]c(O)nc21`, the EC50 was 8.19 µM (active) in test [7] and 130 µM (active) in test [8].

For the origin of these results see ChEMBL document CHEMBL1201862, “PubChem BioAssay data set” (2004).
